Source: patent US5486516A, “Furopyrimidine derivatives” (DowElanco, priority 1993, dated 1996)

Each compound was assayed on Southern corn rootworm (Diabrotica undecimpuctata howardi Barber) (assay: Mite/insect screen, corn rootworm). Settings: Diabrotica; CRW rate 12.00 ppm, soil; read-out: CRW results (percent mortality).
Format: in vivo
Procedure, shortened: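 Compound in acetone/alcohol with emulsifiers, diluted with water; 1 mL applied to 15 g dry sandy soil holding a presoaked corn seed. After 6–12 h drying, five 2-3 instar larvae added, held at 23° C; percent mortality and phytotoxicity scored after standard exposure periods.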

SMILES | mortality at 12 ppm
COc1ccc(CCNc2ncnc3occ(C)c23)cc1 [Example 2, 5-methyl-N-[2-(4-methoxyphenyl)ethyl]furo[2,3-d]pyrimidin-4-amine] | 0%
Cc1oc2ncnc(Oc3cccc(C(F)(F)F)c3)c2c1C [Example 63, 5,6-dimethyl-4-[3-(trifluoromethyl)phenoxy]furo[2,3-d]pyrimidine] | 0%
COc1ccccc1Oc1ncnc2oc(C)c(C)c12 [Example 28, 5,6-dimethyl-4-(2-methoxyphenoxy)furo[2,3-d]pyrimidine] | 0%

Same assay, conditions: Diabrotica; CRW rate 24.00 ppm, soil; read-out: CRW results (percent mortality)

SMILES | mortality at 24 ppm
COc1ccc(CCNc2ncnc3occ(C)c23)cc1 [Example 2, 5-methyl-N-[2-(4-methoxyphenyl)ethyl]furo[2,3-d]pyrimidin-4-amine] | 0%
Cc1oc2ncnc(Oc3cccc(C(F)(F)F)c3)c2c1C [Example 63, 5,6-dimethyl-4-[3-(trifluoromethyl)phenoxy]furo[2,3-d]pyrimidine] | 0%
COc1ccccc1Oc1ncnc2oc(C)c(C)c12 [Example 28, 5,6-dimethyl-4-(2-methoxyphenoxy)furo[2,3-d]pyrimidine] | 0%

What follows are compounds tested on southern armyworm (Spodopetra eridania Cramer) (assay: Mite/insect screen, Southern armyworm). Settings: Spodoptera eridania; rate 200 ppm, sprayed leaves; read-out: SAW results (percent mortality).
Format: in vivo
Procedure, shortened: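 Compounds in acetone/alcohol with Toximul emulsifiers, diluted in water, sprayed to runoff on squash leaves at 10 psi and dried 1 h. Excised treated leaves fed to southern armyworm larvae in Petri dishes; percent mortality scored after standard exposure.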

SMILES | mortality at 200 ppm
COc1ccc(CCNc2ncnc3occ(C)c23)cc1 [Example 2, 5-methyl-N-[2-(4-methoxyphenyl)ethyl]furo[2,3-d]pyrimidin-4-amine] | 0%
Cc1oc2ncnc(Oc3cccc(C(F)(F)F)c3)c2c1C [Example 63, 5,6-dimethyl-4-[3-(trifluoromethyl)phenoxy]furo[2,3-d]pyrimidine] | 0%
COc1ccccc1Oc1ncnc2oc(C)c(C)c12 [Example 28, 5,6-dimethyl-4-(2-methoxyphenoxy)furo[2,3-d]pyrimidine] | 0%

Same assay, conditions: Spodoptera eridania; rate 400 ppm, sprayed leaves; read-out: SAW results (percent mortality)

SMILES | mortality at 400 ppm
COc1ccc(CCNc2ncnc3occ(C)c23)cc1 [Example 2, 5-methyl-N-[2-(4-methoxyphenyl)ethyl]furo[2,3-d]pyrimidin-4-amine] | 0%
Cc1oc2ncnc(Oc3cccc(C(F)(F)F)c3)c2c1C [Example 63, 5,6-dimethyl-4-[3-(trifluoromethyl)phenoxy]furo[2,3-d]pyrimidine] | 0%
COc1ccccc1Oc1ncnc2oc(C)c(C)c12 [Example 28, 5,6-dimethyl-4-(2-methoxyphenoxy)furo[2,3-d]pyrimidine] | 0%

What follows are compounds tested on Pseudoperonospora cubensis (downy mildew) (assay: Plant pathology screen (Test 1), downy mildew on squash). Settings: foliar, read-out: DOWN MDEW control rating.

SMILES | pest or weed control at 400 µg/mL
COc1ccc(CCNc2ncnc3occ(C)c23)cc1 [Example 2, 5-methyl-N-[2-(4-methoxyphenyl)ethyl]furo[2,3-d]pyrimidin-4-amine] | 90 to 100%
Cc1oc2ncnc(Oc3cccc(C(F)(F)F)c3)c2c1C [Example 63, 5,6-dimethyl-4-[3-(trifluoromethyl)phenoxy]furo[2,3-d]pyrimidine] | 20 to 89%
COc1ccccc1Oc1ncnc2oc(C)c(C)c12 [Example 28, 5,6-dimethyl-4-(2-methoxyphenoxy)furo[2,3-d]pyrimidine] | 0 to 19%

What follows are compounds tested on melon aphids (Aphis gossvpii Glover) (assay: Mite/insect screen, melon aphids). Settings: Aphis; rate 200 ppm, sprayed leaves; read-out: MA results (percent mortality).
Format: in vivo
Procedure, shortened: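 Aphids established on squash cotyledons were sprayed to runoff with compound in acetone/alcohol with sulfonate/nonionic emulsifiers, diluted in water to test concentrations. Leaves dried 1 h. Percent mortality scored after standard exposure periods.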

SMILES | mortality at 200 ppm
COc1ccc(CCNc2ncnc3occ(C)c23)cc1 [Example 2, 5-methyl-N-[2-(4-methoxyphenyl)ethyl]furo[2,3-d]pyrimidin-4-amine] | 0%
Cc1oc2ncnc(Oc3cccc(C(F)(F)F)c3)c2c1C [Example 63, 5,6-dimethyl-4-[3-(trifluoromethyl)phenoxy]furo[2,3-d]pyrimidine] | 0%
COc1ccccc1Oc1ncnc2oc(C)c(C)c12 [Example 28, 5,6-dimethyl-4-(2-methoxyphenoxy)furo[2,3-d]pyrimidine] | 30%

Same assay, conditions: Aphis; rate 400 ppm, sprayed leaves; read-out: MA results (percent mortality)

SMILES | mortality at 400 ppm
COc1ccc(CCNc2ncnc3occ(C)c23)cc1 [Example 2, 5-methyl-N-[2-(4-methoxyphenyl)ethyl]furo[2,3-d]pyrimidin-4-amine] | 80%
Cc1oc2ncnc(Oc3cccc(C(F)(F)F)c3)c2c1C [Example 63, 5,6-dimethyl-4-[3-(trifluoromethyl)phenoxy]furo[2,3-d]pyrimidine] | 80%
COc1ccccc1Oc1ncnc2oc(C)c(C)c12 [Example 28, 5,6-dimethyl-4-(2-methoxyphenoxy)furo[2,3-d]pyrimidine] | 0%

Each compound was assayed on Erysiphe graminis tritici (powdery mildew) (assay: Plant pathology screen (Test 1), powdery mildew on wheat). Settings: Blumeria graminis, in Triticum aestivum, foliar, read-out: POWD MDEW control rating.

SMILES | pest or weed control at 400 µg/mL
COc1ccc(CCNc2ncnc3occ(C)c23)cc1 [Example 2, 5-methyl-N-[2-(4-methoxyphenyl)ethyl]furo[2,3-d]pyrimidin-4-amine] | 20 to 89%
Cc1oc2ncnc(Oc3cccc(C(F)(F)F)c3)c2c1C [Example 63, 5,6-dimethyl-4-[3-(trifluoromethyl)phenoxy]furo[2,3-d]pyrimidine] | 0 to 19%
COc1ccccc1Oc1ncnc2oc(C)c(C)c12 [Example 28, 5,6-dimethyl-4-(2-methoxyphenoxy)furo[2,3-d]pyrimidine] | 0 to 19%

The compounds below were run on Pyricularia oryzae (rice blast) (assay: whole plant or invertebrate). Settings: foliar, read-out: RICE BLAST control rating.
Format: in vivo

SMILES | pest or weed control at 400 µg/mL
COc1ccc(CCNc2ncnc3occ(C)c23)cc1 [Example 2, 5-methyl-N-[2-(4-methoxyphenyl)ethyl]furo[2,3-d]pyrimidin-4-amine] | 90 to 100%
Cc1oc2ncnc(Oc3cccc(C(F)(F)F)c3)c2c1C [Example 63, 5,6-dimethyl-4-[3-(trifluoromethyl)phenoxy]furo[2,3-d]pyrimidine] | 0 to 19%
COc1ccccc1Oc1ncnc2oc(C)c(C)c12 [Example 28, 5,6-dimethyl-4-(2-methoxyphenoxy)furo[2,3-d]pyrimidine] | 0 to 19%

These compounds were tested on Puccinia recondita tritici (leaf rust) (assay: Plant pathology screen (Test 1), leaf rust on wheat). Settings: in Triticum aestivum, foliar, read-out: LEAF RUST control rating.

SMILES | pest or weed control at 400 µg/mL
COc1ccc(CCNc2ncnc3occ(C)c23)cc1 [Example 2, 5-methyl-N-[2-(4-methoxyphenyl)ethyl]furo[2,3-d]pyrimidin-4-amine] | 90 to 100%
Cc1oc2ncnc(Oc3cccc(C(F)(F)F)c3)c2c1C [Example 63, 5,6-dimethyl-4-[3-(trifluoromethyl)phenoxy]furo[2,3-d]pyrimidine] | 0 to 19%
COc1ccccc1Oc1ncnc2oc(C)c(C)c12 [Example 28, 5,6-dimethyl-4-(2-methoxyphenoxy)furo[2,3-d]pyrimidine] | 0 to 19%

What follows are compounds tested on Twospotted spider mites (Tetranychus urticae Koch) (assay: Mite/insect screen, twospotted spider mites). Settings: Tetranychus urticae, rate 200 ppm, sprayed leaves; read-out: SM results (percent mortality).
Format: in vivo
Procedure, shortened: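 Squash cotyledons infested with mites were sprayed to runoff at 10 psi with compound in acetone/alcohol plus emulsifiers, diluted in water to the stated concentrations. Percent mortality and phytotoxicity were scored after standard exposure periods.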

SMILES | mortality at 200 ppm
COc1ccc(CCNc2ncnc3occ(C)c23)cc1 [Example 2, 5-methyl-N-[2-(4-methoxyphenyl)ethyl]furo[2,3-d]pyrimidin-4-amine] | 0%
Cc1oc2ncnc(Oc3cccc(C(F)(F)F)c3)c2c1C [Example 63, 5,6-dimethyl-4-[3-(trifluoromethyl)phenoxy]furo[2,3-d]pyrimidine] | 0%
COc1ccccc1Oc1ncnc2oc(C)c(C)c12 [Example 28, 5,6-dimethyl-4-(2-methoxyphenoxy)furo[2,3-d]pyrimidine] | 90%

Same assay, conditions: Tetranychus urticae, rate 400 ppm, sprayed leaves; read-out: SM results (percent mortality)

SMILES | mortality at 400 ppm
COc1ccc(CCNc2ncnc3occ(C)c23)cc1 [Example 2, 5-methyl-N-[2-(4-methoxyphenyl)ethyl]furo[2,3-d]pyrimidin-4-amine] | 0%
Cc1oc2ncnc(Oc3cccc(C(F)(F)F)c3)c2c1C [Example 63, 5,6-dimethyl-4-[3-(trifluoromethyl)phenoxy]furo[2,3-d]pyrimidine] | 50%
COc1ccccc1Oc1ncnc2oc(C)c(C)c12 [Example 28, 5,6-dimethyl-4-(2-methoxyphenoxy)furo[2,3-d]pyrimidine] | 0%

These compounds were tested on Botrytis cinerea (gray mold) (assay: Plant pathology screen (Test 1), gray mold on grape berries). Settings: read-out: GRAY MOLD control rating.

SMILES | pest or weed control at 400 µg/mL
COc1ccc(CCNc2ncnc3occ(C)c23)cc1 [Example 2, 5-methyl-N-[2-(4-methoxyphenyl)ethyl]furo[2,3-d]pyrimidin-4-amine] | 0 to 19%
Cc1oc2ncnc(Oc3cccc(C(F)(F)F)c3)c2c1C [Example 63, 5,6-dimethyl-4-[3-(trifluoromethyl)phenoxy]furo[2,3-d]pyrimidine] | 0 to 19%
COc1ccccc1Oc1ncnc2oc(C)c(C)c12 [Example 28, 5,6-dimethyl-4-(2-methoxyphenoxy)furo[2,3-d]pyrimidine] | 0 to 19%
